# Results reported in paper PMC4725968 (Scientific Reports, 2016).
# T1: DERAPA (Pyrobaculum aerophilum, UniProt Q8ZXK7)
# T1 construct: gene deoC; synthetic deoC gene in pET21a, C-terminal 6xHis tag; E. coli BL21(DE3); NiNTA; dimer
# T1 sequence (Q8ZXK7 1-226): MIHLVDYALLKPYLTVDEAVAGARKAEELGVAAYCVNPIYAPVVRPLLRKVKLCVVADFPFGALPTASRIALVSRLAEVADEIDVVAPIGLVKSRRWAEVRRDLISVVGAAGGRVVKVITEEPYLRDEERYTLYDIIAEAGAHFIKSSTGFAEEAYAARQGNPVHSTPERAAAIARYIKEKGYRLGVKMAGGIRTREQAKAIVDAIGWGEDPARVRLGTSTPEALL
# T2: DERAEC (Escherichia coli, UniProt P0A6L0)
# T2 construct: gene deoC; deoC isolated previously; E. coli BL21(DE3); NiNTA purification; dimer
# T2 sequence (P0A6L0 1-259): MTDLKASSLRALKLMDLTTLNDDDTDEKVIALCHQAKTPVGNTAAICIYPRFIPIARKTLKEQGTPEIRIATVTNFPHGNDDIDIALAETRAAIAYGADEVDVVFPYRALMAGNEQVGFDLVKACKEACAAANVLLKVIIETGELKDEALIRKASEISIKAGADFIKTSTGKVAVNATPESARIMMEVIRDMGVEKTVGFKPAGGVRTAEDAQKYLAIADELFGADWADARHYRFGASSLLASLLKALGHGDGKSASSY
# T3: DERACP (Colwellia psychrerythraea, UniProt Q483R4)
# T3 construct: gene deoC; synthetic deoC gene in pET21a, C-terminal 6xHis tag; E. coli BL21(DE3); NiNTA; dimer
# T3 sequence (Q483R4 1-257): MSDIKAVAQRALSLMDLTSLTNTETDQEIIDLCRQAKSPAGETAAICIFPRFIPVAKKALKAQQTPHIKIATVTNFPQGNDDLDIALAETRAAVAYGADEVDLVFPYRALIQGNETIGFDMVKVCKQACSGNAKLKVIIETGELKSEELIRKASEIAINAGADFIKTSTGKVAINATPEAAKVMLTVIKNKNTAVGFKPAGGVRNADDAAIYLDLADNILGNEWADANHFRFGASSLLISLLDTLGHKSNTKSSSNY
# T4: DERATM (Thermotoga maritima, UniProt Q9X1P5)
# T4 construct: gene deoC; synthetic deoC gene in pET21a, C-terminal 6xHis tag; E. coli BL21(DE3); NiNTA; dimer
# T4 sequence (Q9X1P5 1-248): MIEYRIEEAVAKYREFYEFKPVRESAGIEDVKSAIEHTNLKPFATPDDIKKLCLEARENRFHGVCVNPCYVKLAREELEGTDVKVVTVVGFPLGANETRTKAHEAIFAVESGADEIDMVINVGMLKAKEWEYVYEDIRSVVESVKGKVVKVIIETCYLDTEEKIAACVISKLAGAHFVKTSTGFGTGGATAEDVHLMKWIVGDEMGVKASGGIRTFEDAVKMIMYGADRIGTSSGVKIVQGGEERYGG
# Assays:
# DERAPA = molecular target: T1, DERAPA; test: steady-state kinetics, coupled GDH/TPI assay, NADH at […] nm; format: biochemical; settings: retro-aldol cleavage; 25 °C
# DERAEC = molecular target: T2, DERAEC; test: as above; format: biochemical; settings: retro-aldol cleavage; 25 °C
# DERACP = molecular target: T3, DERACP; test: as above; format: biochemical; settings: retro-aldol cleavage; 25 °C
# DERASH = molecular target: T5, DERASH (Shewanella halifaxensis, UniProt B0TQ91); test: as above; format: biochemical; settings: retro-aldol cleavage; 25 °C
# T5 construct: gene deoC; deoC isolated from genomic DNA; E. coli BL21(DE3); NiNTA purification; dimer
# DERATM = molecular target: T4, DERATM; test: as above; format: biochemical; settings: retro-aldol cleavage; 25 °C
# [1] = molecular target: the molecule itself; test: crystal structure; sitting-drop vapour diffusion at 20 °C; data at 100 K; DERACP tetragonal (P4(1)2(1)2, two chains per asymmetric unit) and hexagonal (P6(1)22, four chains) forms, DERASH (C2, four chains)
# [2] = molecular target: the molecule itself; test: cross-linking; engineered intermolecular disulfide (A95C) across the dimer interface; oxidised against reduced mutant on SDS-PAGE under non-reducing conditions
# [3] = molecular target: the molecule itself; test: SEC; Superdex 200 10/300 GL, 100 mM KPi, 150 mM NaCl (pH 7); 1-5 mg protein loaded; calibrated with five protein standards between 12.5 and 200 kDa; hydrodynamic size
# T5 sequence (B0TQ91 whole entry): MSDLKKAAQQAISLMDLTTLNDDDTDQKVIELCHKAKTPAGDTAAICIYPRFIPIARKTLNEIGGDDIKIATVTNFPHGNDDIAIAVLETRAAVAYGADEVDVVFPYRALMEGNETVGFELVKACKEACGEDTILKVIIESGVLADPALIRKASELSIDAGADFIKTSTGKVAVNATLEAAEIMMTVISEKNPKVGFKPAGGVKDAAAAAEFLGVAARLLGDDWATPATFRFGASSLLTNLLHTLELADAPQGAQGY
molecule,measurement,setting,value
O=P(O)(O)OC[C@H]1OC(O)C[C@@H]1O (stereo partly drawn) [2-deoxy-D-ribose-5-phosphate],KM,DERAPA,Both KM and kcat values decrease with increasing optimal growth temperature of the organism
same,KM,DERAEC,Both KM and kcat values decrease with increasing optimal growth temperature of the organism
same,KM,DERACP,Both KM and kcat values decrease with increasing optimal growth temperature of the organism
same,KM,DERASH,Both KM and kcat values decrease with increasing optimal growth temperature of the organism
same,KM,DERATM,Both KM and kcat values decrease with increasing optimal growth temperature of the organism
"2-deoxy-D-ribose-5-phosphate aldolase (DERA) from Colwellia psychrerythraea, wild type (enzyme, UniProt Q483R4 1-257, looked up, 2-deoxy-D-ribose-5-phosphate aldolase (DERA, deoC gene) of Colwellia psychrerythraea; gene synthesised by GenScript, in pET21a; also called DERACP; psychrophilic DERA; source: E. coli BL21(DE3), purified (Ni-NTA, SEC)) MSDIKAVAQRALSLMDLTSLTNTETDQEIIDLCRQAKSPAGETAAICIFPRFIPVAKKALKAQQTPHIKIATVTNFPQGNDDLDIALAETRAAVAYGADEVDLVFPYRALIQGNETIGFDMVKVCKQACSGNAKLKVIIETGELKSEELIRKASEIAINAGADFIKTSTGKVAINATPEAAKVMLTVIKNKNTAVGFKPAGGVRNADDAAIYLDLADNILGNEWADANHFRFGASSLLISLLDTLGHKSNTKSSSNY",stoichiometry N,[1],2
"A95C mutant of DERA from Escherichia coli (enzyme, intermolecular disulfide bridge C95-C95 in the oxidised form, DERA (deoC gene) of Escherichia coli with the mutation A95C; also called DERAEC A95C; source: E. coli BL21(DE3), purified (Ni-NTA)) MTDLKASSLRALKLMDLTTLNDDDTDEKVIALCHQAKTPVGNTAAICIYPRFIPIARKTLKEQGTPEIRIATVTNFPHGNDDIDIALAETRAAICYGADEVDVVFPYRALMAGNEQVGFDLVKACKEACAAANVLLKVIIETGELKDEALIRKASEISIKAGADFIKTSTGKVAVNATPESARIMMEVIRDMGVEKTVGFKPAGGVRTAEDAQKYLAIADELFGADWADARHYRFGASSLLASLLKALGHGDGKSASSY",binding result,[2],binds
"2-deoxy-D-ribose-5-phosphate aldolase (DERA) from Thermotoga maritima, wild type (enzyme, 2-deoxy-D-ribose-5-phosphate aldolase (DERA, deoC gene) of Thermotoga maritima; gene synthesised by GenScript, in pET21a; also called DERATM; hyperthermophilic DERA; source: E. coli BL21(DE3), purified (Ni-NTA)) MIEYRIEEAVAKYREFYEFKPVRESAGIEDVKSAIEHTNLKPFATPDDIKKLCLEARENRFHGVCVNPCYVKLAREELEGTDVKVVTVVGFPLGANETRTKAHEAIFAVESGADEIDMVINVGMLKAKEWEYVYEDIRSVVESVKGKVVKVIIETCYLDTEEKIAACVISKLAGAHFVKTSTGFGTGGATAEDVHLMKWIVGDEMGVKASGGIRTFEDAVKMIMYGADRIGTSSGVKIVQGGEERYGG",stoichiometry N,[3],2
"2-deoxy-D-ribose-5-phosphate aldolase (DERA) from Pyrobaculum aerophilum, wild type (enzyme, 2-deoxy-D-ribose-5-phosphate aldolase (DERA, deoC gene) of Pyrobaculum aerophilum; gene synthesised by GenScript, in pET21a; also called DERAPA; hyperthermophilic DERA; source: E. coli BL21(DE3), purified (Ni-NTA)) MIHLVDYALLKPYLTVDEAVAGARKAEELGVAAYCVNPIYAPVVRPLLRKVKLCVVADFPFGALPTASRIALVSRLAEVADEIDVVAPIGLVKSRRWAEVRRDLISVVGAAGGRVVKVITEEPYLRDEERYTLYDIIAEAGAHFIKSSTGFAEEAYAARQGNPVHSTPERAAAIARYIKEKGYRLGVKMAGGIRTREQAKAIVDAIGWGEDPARVRLGTSTPEALL",stoichiometry N,[3],2
